Measured values taken from BindingDB's records for doi:10.1021/jm000541z (Abbott Laboratories, 2001).

Target: Alpha-1B adrenergic receptor (Mesocricetus auratus) (UniProt P18841)
Test: Binding affinity to hamster alpha-1B adrenergic receptor

Sequence of Alpha-1B adrenergic receptor (Mesocricetus auratus) (P18841 whole entry, looked up): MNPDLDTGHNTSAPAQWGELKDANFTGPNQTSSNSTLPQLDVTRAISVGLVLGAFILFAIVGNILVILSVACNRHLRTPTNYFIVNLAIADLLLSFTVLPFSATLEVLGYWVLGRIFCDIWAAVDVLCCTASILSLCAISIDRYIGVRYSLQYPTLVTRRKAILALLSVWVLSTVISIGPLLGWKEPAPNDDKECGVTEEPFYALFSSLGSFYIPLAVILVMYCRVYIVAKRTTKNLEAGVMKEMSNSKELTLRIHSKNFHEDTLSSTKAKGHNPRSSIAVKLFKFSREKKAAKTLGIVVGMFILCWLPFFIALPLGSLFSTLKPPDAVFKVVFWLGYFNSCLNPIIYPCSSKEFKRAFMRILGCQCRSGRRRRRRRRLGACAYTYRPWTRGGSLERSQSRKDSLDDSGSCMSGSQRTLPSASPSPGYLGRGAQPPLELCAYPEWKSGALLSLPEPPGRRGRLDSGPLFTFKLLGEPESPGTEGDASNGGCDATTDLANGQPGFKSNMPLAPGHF

Row | Ki [nM] | Structure (SMILES)
1 | 95.2 | COc1cc2c(cc1OC)C(=O)N(CCN1C[C@@H]3CCc4c(OC)cccc4[C@@H]3C1)CN2 [6,7-Dimethoxy-3-[2-(6-methoxy-1,3,3a,4,5,9b-hexahydro-benzo[e]isoindol-2-yl)-ethyl]-2,3-dihydro-1H-quinazolin-4-one]
2 | 191 | COc1cc2c(cc1OC)NC(=O)N(CCN1C[C@@H]3CCc4c(OC)cccc4[C@@H]3C1)C2 [6,7-Dimethoxy-3-[2-(6-methoxy-1,3,3a,4,5,9b-hexahydro-benzo[e]isoindol-2-yl)-ethyl]-3,4-dihydro-1H-quinazolin-2-one]
3 | 15.3 | COc1cc2ncn(CCN3C[C@@H]4CCc5c(OC)cccc5[C@@H]4C3)c(=O)c2cc1OC [6,7-Dimethoxy-3-[2-(6-methoxy-1,3,3a,4,5,9b-hexahydro-benzo[e]isoindol-2-yl)-ethyl]-3H-quinazolin-4-one]
4 | 9.27 | COc1cc2[nH]c(=O)n(CCN3C[C@@H]4CCc5c(OC)cccc5[C@@H]4C3)c(=O)c2cc1Cl [6-Chloro-7-methoxy-3-[2-(6-methoxy-1,3,3a,4,5,9b-hexahydro-benzo[e]isoindol-2-yl)-ethyl]-1H-quinazoline-2,4-dione]
5 | 3.76 | COc1ccc2[nH]c(=O)n(CCN3C[C@@H]4CCc5c(OC)cccc5[C@@H]4C3)c(=O)c2c1 [6-Methoxy-3-[2-(6-methoxy-1,3,3a,4,5,9b-hexahydro-benzo[e]isoindol-2-yl)-ethyl]-1H-quinazoline-2,4-dione]
6 | 0.74 | COc1cc2[nH]c(=O)n(CCN3C[C@@H]4CCc5c(OC)cccc5[C@@H]4C3)c(=O)c2s1 [6-Methoxy-3-[2-(6-methoxy-1,3,3a,4,5,9b-hexahydro-benzo[e]isoindol-2-yl)-ethyl]-1H-thieno[3,2-d]pyrimidine-2,4-dione]
7 | 7.14 | COc1cccc2c1CC[C@H]1CN(CCn3c(=O)[nH]c4c(C)c(OC)sc4c3=O)C[C@@H]21 [6-Methoxy-3-[2-(6-methoxy-1,3,3a,4,5,9b-hexahydro-benzo[e]isoindol-2-yl)-ethyl]-7-methyl-1H-thieno[3,2-d]pyrimidine-2,4-dione]
8 | 2.71 | COc1cccc2c1CC[C@H]1CN(CCn3c(=O)[nH]c4cc(Cl)ccc4c3=O)C[C@@H]21 [7-Chloro-3-[2-(6-methoxy-1,3,3a,4,5,9b-hexahydro-benzo[e]isoindol-2-yl)-ethyl]-1H-quinazoline-2,4-dione]
9 | 2.31 | COc1cccc2c1CC[C@H]1CN(CCn3c(=O)[nH]c4c(C(C)C)c(OC)sc4c3=O)C[C@@H]21 [7-Isopropyl-6-methoxy-3-[2-(6-methoxy-1,3,3a,4,5,9b-hexahydro-benzo[e]isoindol-2-yl)-ethyl]-1H-thieno[3,2-d]pyrimidine-2,4-dione]
10 | 0.66 | COc1ccc2c(=O)n(CCN3C[C@@H]4CCc5c(OC)cccc5[C@@H]4C3)c(=O)[nH]c2c1 [7-Methoxy-3-[2-(6-methoxy-1,3,3a,4,5,9b-hexahydro-benzo[e]isoindol-2-yl)-ethyl]-1H-quinazoline-2,4-dione]
11 | 2.27 | COc1cccc2c1CC[C@H]1CN(CCn3c(=O)[nH]c4c(OC)cccc4c3=O)C[C@@H]21 [8-Methoxy-3-[2-(6-methoxy-1,3,3a,4,5,9b-hexahydro-benzo[e]isoindol-2-yl)-ethyl]-1H-quinazoline-2,4-dione]
12 | 0.84 | COc1cccc2c1CC[C@H]1CN(CCn3c(=O)[nH]c4cc(NC(C)=O)ccc4c3=O)C[C@@H]21 [N-{3-[2-(6-Methoxy-1,3,3a,4,5,9b-hexahydro-benzo[e]isoindol-2-yl)-ethyl]-2,4-dioxo-1,2,3,4-tetrahydro-quinazolin-7-yl}-acetamide]
